Measurements as given in patent US5472684A, “Oral compositions for plaque and gingivitis” (Colgate Palmolive Company, priority 1993, dated 1995).
Like-named read-outs stand apart in the source and are kept apart here. Each block holds one compound with its values, some of them ahead of it.

What was measured:
[1] = system: Plaque; experiment: 4-day plaque regrowth in a clinical study in humans, plaque score; type: in vivo
Protocol: (§1) The efficacy of natural product rinse on the reduction of plaque was evaluated in a clinical study in humans. The study was randomized, blind, 3 cells cross-over design to measure the effects of each rinse on 4 day plaque growth from a zero baseline. […] On the other hand, 0.2% chlorhexidine rinse, clinically proven for plaque and gingivitis effect, inhibited 48.0% and 78.0% regrowth of plaque measured by score and area, respectively under similar conditions.

[2] = system: Plaque; experiment: 4-day plaque regrowth in a clinical study in humans, plaque area; type: in vivo
Protocol: as §1

[3] = system: Actinomyces viscosus; experiment: MIC of natural flavoring agents vs. A. viscosus, standard serial dilution method; type: cell-based; details: for MIC: Actinomyces viscosus, read-out: Antibacterial Activity vs. A. viscosus MIC; for antibacterial activity against A. viscosus (in words): from MIC data of Table 1
Protocol: The antibacterial activities of a number of natural flavoring agents were evaluated against Actinomyces viscosus, a dental plaque bacterium, by measuring the minimum inhibitory concentration (hereinafter referred to as MIC) of the respective agents in vitro according to the standard serial dilution method delineated in N. Nabi et al., Am. J. Dent. 2: 197:206, 1989 which is incorporated herein by reference. The MIC is defined for the purpose of this invention to mean the concentration of a particular agent at which no bacterial growth was observed. The natural flavoring agents used were obtained from commercial sources available in organic or aqueous solvents. The antibacterial compound, Triclosan, was used as a positive Control. Triclosan is 2,4,4'-trichloro-2'-hydroxydiphenyl ether.

[4] = system: plaque and gingivitis; details: toothpaste and mouthrinse containing Triclosan, humans; cited from earlier work
[5] = system: bacterial plaque formation; experiment: Chemostat Plaque Model in vitro (flow cell system, artificial mouth); type: cell-based; details: about 0.5 wt % eucalyptol or about 0.01 wt. % sage oil added to rinse (2)
Protocol: The effect of natural product rinse (2) to inhibit bacterial plaque formation in vitro was assessed using the Chemostat Plaque Model according to methods of A. Gaffar et al. described in Am. J. Dent., 3, p. S7-S14, 1990. This in vitro model simulates the actual saliva and tooth surface interactions with respect to the plaque formation in the mouth and assesses the interactions, at biophysical and surface chemical level, of saliva-coated bacteria to saliva-coated surfaces with a surface energy similar to dental enamel.

[6] = 4-day plaque regrowth, rinsed twice daily, fifteen volunteers
[7] = after 4 days, compared with 0.9% saline rinse, p < 0.001
[8] = in vitro, serial dilution, concentration at which no bacterial growth was observed

Compound: [H]/N=C(\N/C(=N/[H])NCCCCCCNC(=N)NC(=N)Nc1ccc(Cl)cc1)Nc1ccc(Cl)cc1 [Chlorhexidine]
Plaque Score [1, 6]: 0.128 +/- 0.068
Plaque Reduction % (plaque score) [1, 7]: 48.0%
Plaque Area [2, 6]: 0.069 +/- 0.055
Plaque Reduction % (plaque area) [2, 7]: 78.0%

Compound: C=CCc1ccc(O)c(OC)c1 [Eugenol]
MIC [3, 8]: 25 µg/mL
antibacterial activity against A. viscosus (in words) [3]: most active

MIC [3, 8]: 25 µg/mL
Compound: CC(C)=CCCC(C)=CCCC(C)=CCO [Farnesol]
antibacterial activity against A. viscosus (in words) [3]: excellent antibacterial activity equivalent to thymol or eugenol
antibacterial activity against A. viscosus (in words) ([3]; listed as farnesol): most active

MIC [3, 8]: 25 µg/mL
Compound: Cc1ccc(C(C)C)c(O)c1 [Thymol]
antibacterial activity against A. viscosus (in words) [3]: most active

Compound: Oc1cc(Cl)ccc1Oc1ccc(Cl)cc1Cl [Triclosan, 2,4,4'-trichloro-2'-hydroxydiphenyl ether, reference compound]
MIC [3]: 5 µg/mL
effect on plaque and gingivitis (in words) [4]: reduce plaque and gingivitis

Compound: CC12CCC(CC1)C(C)(C)O2 [eucalyptol]
antiplaque activity on addition to natural product rinse (2) (in words) [5]: increases the antiplaque activity
